Measured values published in the supplement of paper PMC4862054.

How the values were obtained:
Assay in all cases: normalised response (% of control), CellTiter-Glo; higher = more viable cells (100 = DMSO, 0 = benzethonium chloride kill control)
Conditions in all cases: incubation time: 72 h
BT-474 = tested on: BT-474
Procedure, shortened: (§1)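 Compound was dispensed into 384-well plates at 5 concentrations in 10-fold steps spanning a 10,000-fold range specific to that compound. Breast cancer cell lines were added as 20 µl suspension and left for 72 h before CellTox Green fluorescence (485/520 nm) and then CellTiter-Glo luminescence, read after 10 min at room temperature. Each reported value is the normalised signal at one concentration, with 0.1 % DMSO set at 100 and a positive kill control at 0 on each plate.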

BT-549 = tested on: BT-549
Procedure, shortened: as §1

CAL-120 = tested on: CAL-120
Procedure, shortened: as §1

CAL-148 = tested on: CAL-148
Procedure, shortened: as §1

CAL-51 = tested on: CAL-51
Procedure, shortened: as §1

CAL-85-1 = tested on: CAL-85-1
Procedure, shortened: as §1

DU-4475 = tested on: DU-4475
Procedure, shortened: as §1

HCC1143 = tested on: HCC1143
Procedure, shortened: as §1

HCC1599 = tested on: HCC1599
Procedure, shortened: as §1

HCC1937 = tested on: HCC1937
Procedure, shortened: as §1

HDQ-P1 = tested on: HDQ-P1
Procedure, shortened: as §1

Hs578T = tested on: Hs578T
Procedure, shortened: as §1

MCF-10A = tested on: MCF-10A
Procedure, shortened: as §1

MDA-MB-231 = tested on: MDA-MB-231
Procedure, shortened: as §1

MDA-MB-436 = tested on: MDA-MB-436
Procedure, shortened: as §1

MDA-MB-453 = tested on: MDA-MB-453
Procedure, shortened: as §1

MDA-MB-468 = tested on: MDA-MB-468
Procedure, shortened: as §1

MFM-223 = tested on: MFM-223
Procedure, shortened: as §1

SK-BR-3 = tested on: SK-BR-3
Procedure, shortened: as §1

| Structure (SMILES) | normalised response (BT-474) [%] | normalised response (BT-549) [%] | normalised response (CAL-120) [%] | normalised response (CAL-148) [%] | normalised response (CAL-51) [%] | normalised response (CAL-85-1) [%] | normalised response (DU-4475) [%] | normalised response (HCC1143) [%] | normalised response (HCC1599) [%] | normalised response (HCC1937) [%] | normalised response (HDQ-P1) [%] | normalised response (Hs578T) [%] | normalised response (MCF-10A) [%] | normalised response (MDA-MB-231) [%] | normalised response (MDA-MB-436) [%] | normalised response (MDA-MB-453) [%] | normalised response (MDA-MB-468) [%] | normalised response (MFM-223) [%] | normalised response (SK-BR-3) [%] |
| --- | --- | --- | --- | --- | --- | --- | --- | --- | --- | --- | --- | --- | --- | --- | --- | --- | --- | --- | --- |
| Nc1nc2[nH]cc(CCc3ccc(C(=O)N[C@@H](CCC(=O)O)C(=O)O)cc3)c2c(=O)[nH]1 [Pemetrexed] (10 nM) | 98.2 | 108 | 105 | 98 | 73.3 | 97.5 | 95.3 | 106 | 88.7 | 104 | 99.5 | 98.5 | 100 | 96.9 | 91.3 | 92.8 | 93.9 | 94.9 | 97.1 |
| CC[C@H](C)C(=O)O[C@H]1C[C@H](O)C=C2C=C[C@H](C)[C@H](CC[C@@H](O)C[C@@H](O)CC(=O)O)[C@H]21 [Pravastatin] (1 nM) | 99.6 | 102 | 101 | 87.5 | 104 | 92.6 | 95.5 | 95.1 | 117 | 97.6 | 103 | 101 | 96 | 102 | 99.6 | 99.8 | 99.9 | 93.1 | 94.2 |
| CC[C@H](C)C(=O)O[C@H]1C[C@H](O)C=C2C=C[C@H](C)[C@H](CC[C@@H](O)C[C@@H](O)CC(=O)O)[C@H]21 [Pravastatin] (10 nM) | 98.1 | 92.2 | 105 | 98.7 | 128 | 104 | 91.5 | 97.3 | 88.5 | 95.4 | 106 | 100 | 102 | 99.1 | 97.7 | 85.2 | 104 | 92.3 | 95.6 |
| Cc1cnc(NC(=O)Nc2cc(Br)c(C)cc2OC[C@@H]2CNCCO2)cn1 [Rabusertib] (0.1 nM) | 109 | 103 | 107 | 112 | 108 | 107 | 109 | 103 | 88.5 | 101 | 102 | 102 | 109 | 104 | 106 | 114 | 101 | 103 | 111 |
| CNC(=O)c1cc(Oc2ccc(NC(=O)Nc3cc(C(C)(C)C)nn3-c3ccc4ncccc4c3)c(F)c2)ccn1 [Rebastinib] (0.1 nM) | 99.5 | 95.8 | 97.7 | 104 | 122 | 96.6 | 101 | 98.3 | 105 | 107 | 105 | 103 | 109 | 101 | 97.9 | 102 | 97.1 | 101 | 113 |
| CNC(=O)c1cc(Oc2ccc(NC(=O)Nc3cc(C(C)(C)C)nn3-c3ccc4ncccc4c3)c(F)c2)ccn1 [Rebastinib] (1 nM) | 98.8 | 93.8 | 99.1 | 109 | 123 | 99.5 | 98.8 | 104 | 102 | 97.6 | 100 | 103 | 109 | 94.7 | 99.5 | 93.5 | 96.3 | 100 | 104 |
| COc1cc([C@@H]2c3cc4c(cc3[C@@H](O[C@@H]3O[C@@H]5CO[C@@H](c6cccs6)O[C@H]5[C@H](O)[C@H]3O)[C@H]3COC(=O)[C@H]23)OCO4)cc(OC)c1O [Teniposide] (1 nM) | 99.3 | 103 | 95.8 | 102 | 125 | 99 | 99 | 100 | 107 | 106 | 96.4 | 106 | 106 | 94.1 | 96.9 | 91.8 | 95.9 | 96 | 101 |
| COc1cc2nccc(Oc3ccc(NC(=O)Nc4cc(C)on4)c(Cl)c3)c2cc1OC [Tivozanib] (1 nM) | 91.4 | 102 | 95.7 | 94.3 | 108 | 93 | 97.5 | 94.2 | 88.6 | 92.7 | 93.5 | 91 | 79 | 98.9 | 83.2 | 94.7 | 97.3 | 88.6 | 91.2 |
| COc1cc2nccc(Oc3ccc(NC(=O)Nc4cc(C)on4)c(Cl)c3)c2cc1OC [Tivozanib] (10 nM) | 89.9 | 100 | 97.4 | 82.1 | 85.4 | 93.5 | 99.1 | 99.9 | 98.2 | 98.7 | 100 | 94.3 | 90.3 | 98.5 | 94.2 | 91.7 | 93.5 | 87.2 | 80.7 |
| CC(=O)Nc1cccc(-n2c(=O)n(C3CC3)c(=O)c3c(Nc4ccc(I)cc4F)n(C)c(=O)c(C)c32)c1 [Trametinib] (0.025 nM) | 111 | 94.9 | 106 | 111 | 115 | 102 | 99.2 | 95.5 | 101 | 96.5 | 98.6 | 99.5 | 96.3 | 104 | 100 | 109 | 99.4 | 100 | 110 |
| CC(=O)Nc1cccc(-n2c(=O)n(C3CC3)c(=O)c3c(Nc4ccc(I)cc4F)n(C)c(=O)c(C)c32)c1 [Trametinib] (0.25 nM) | 109 | 92.7 | 102 | 111 | 122 | 98.6 | 96.3 | 99.1 | 99.7 | 99.2 | 108 | 94.7 | 82.5 | 107 | 104 | 100 | 98.8 | 109 | 105 |
| CC1=C(/C=C/C(C)=C/C=C/C(C)=C/C(=O)O)C(C)(C)CCC1 [Tretinoin] (1 nM) | 102 | 104 | 98.7 | 102 | 102 | 98.5 | 101 | 99.5 | 92 | 106 | 98.7 | 102 | 105 | 101 | 107 | 97.1 | 102 | 99.2 | 107 |
| CC1=C(/C=C/C(C)=C/C=C/C(C)=C/C(=O)O)C(C)(C)CCC1 [Tretinoin] (10 nM) | 96.6 | 96.9 | 93.2 | 97.8 | 81 | 100 | 98.5 | 95.8 | 102 | 98 | 94.4 | 97.7 | 83.7 | 101 | 94.1 | 94.7 | 97.7 | 103 | 97 |
| COc1cc2c(NC3CCN(C(C)C)CC3)nc(C3CCCCC3)nc2cc1OCCCN1CCCC1 [UNC0638] (1 nM) | 91.1 | 103 | 104 | 86.8 | 117 | 97.4 | 88.9 | 94.6 | 76.7 | 95.3 | 103 | 99.7 | 84.2 | 93.3 | 90 | 95.6 | 90.5 | 87.1 | 90.8 |
| COc1cc2c(NC3CCN(C(C)C)CC3)nc(C3CCCCC3)nc2cc1OCCCN1CCCC1 [UNC0638] (10 nM) | 94.2 | 98.4 | 98 | 90.8 | 116 | 93.3 | 90.4 | 102 | 82.1 | 96.6 | 95.6 | 99.7 | 83 | 92.5 | 94.8 | 85.3 | 88.2 | 88 | 85.9 |
| Oc1ncc(N(CCCl)CCCl)c(O)n1 [Uracil mustard] (1 nM) | 105 | 89.4 | 98.6 | 101 | 115 | 94.2 | 95.6 | 102 | 105 | 103 | 98.8 | 99.7 | 105 | 97.2 | 95.8 | 105 | 107 | 101 | 99.7 |
| CCCCC(=O)OCC(=O)[C@]1(O)Cc2c(O)c3c(c(O)c2[C@@H](O[C@H]2C[C@H](NC(=O)C(F)(F)F)[C@H](O)[C@H](C)O2)C1)C(=O)c1c(OC)cccc1C3=O [Valrubicin] (0.5 nM) | 104 | 97.1 | 95.2 | 94 | 87.8 | 98.2 | 99.8 | 102 | 97.2 | 98.3 | 101 | 96 | 111 | 99.6 | 98.4 | 94.2 | 99.1 | 102 | 97.9 |
| CCCS(=O)(=O)Nc1ccc(F)c(C(=O)c2c[nH]c3ncc(-c4ccc(Cl)cc4)cc23)c1F [Vemurafenib] (1 nM) | 97.2 | 95 | 92.4 | 84.2 | 92.5 | 98 | 96.7 | 85.1 | 95.6 | 91.5 | 89.6 | 95.3 | 82.1 | 95.9 | 88 | 83.4 | 95 | 88 | 86.9 |
| CCCS(=O)(=O)Nc1ccc(F)c(C(=O)c2c[nH]c3ncc(-c4ccc(Cl)cc4)cc23)c1F [Vemurafenib] (10 nM) | 95.5 | 91.2 | 95.2 | 87.8 | 109 | 90.9 | 93.2 | 97.6 | 99.6 | 98.8 | 94.9 | 95.8 | 89.2 | 91.3 | 88.7 | 87.6 | 88.2 | 89.8 | 71.8 |
